Results on 14 compounds are retold here after PubChem BioAssay AID2060903 (Molecular Pharmacology Branch, DTP, NCI, 2025).

The test system of this test is 377384-186-R-J1-PDC complex spheroid viability. The experiment in a line: Anticancer human tumor 377384-186-R-J1-PDC patient-derived pancreatic carcinoma cell line growth inhibition [RAS]. Particulars: for viability, T/C: stronger effect = lower value. From the text: RAS pathway inhibitors in Combinations in Complex Spheroids
A high-throughput screen of multi-cell type tumor spheroids was designed to identify active combinations of RAS pathway inhibitors and targeted small molecules. Complex spheroids include a stromal component modeled by human endothelial cells (HUVEC) and fibroblasts modeled by human mesenchymal stem cells (MSCs). The concentration ranges selected for each drug and investigational agent were based upon clinically achievable concentrations if the clinical Cmax of the agent was known.
Compounds. The drugs and investigational agents: abemaciclib (NSC768073), cobimetinib (NSC768068), divarasib (GDC6063, NSC841802), docetaxel (NSC628503), GDC-1971 (RLY-1971, NSC841576), gemcitabine (NSC613327), inavolisib (NSC800729), ipatasertib (NSC767898), KB-0742 (NSC834161), MRTX-1133 (NSC836407), osimertinib (NSC779217), RMC-4630 (NSC839698), RMC-6236 (NSC851965), RMC-6291 (NSC852671), Ro-3306 (NSC812927), sapanisertib (NSC764658), SN-38 (NSC673596), staurosporine (NSC755774), SY5609 (NSC837396), and tovorafenib (DAY101, NSC766906), were obtained from the National Cancer Institute (NCI) Developmental Therapeutics Program Chemical Repository. The FDA-approved anticancer drug set is available from the NCI Developmental Therapeutics Program. […] The stock solutions were prepared in dimethyl sulfoxide (DMSO, Sigma-Aldrich, St. Louis, MO, cat. D2650) at 800-fold the tested concentration and stored at -70 degrees C prior to their use. All drugs and investigational agents were tested over a range starting from a high concentration at or near the clinical Cmax and decreasing in half-log increments. If the clinical Cmax for an agent had not been determined, the highest concentration tested was 10 microM.
Cell Culture. All cells were maintained in an incubator at 37 degrees C and 5% CO2 with 95% humidity. The PDC lines were cultured according to standard operating procedures established by the NCI PDMR. All PDCs were thawed and cultured in Matrigel-coated flasks prepared with a working solution of 1X Ham's F-12 nutrient mix, without supplementation (Invitrogen, Waltham, MA, cat. 11765054), 100 U/mL penicillin-streptomycin (Invitrogen, cat. 15140122), and 2.5% Matrigel (Corning Inc., Corning, NY, cat. 354248) for the first three passages. The 362531-283-R-J2-PDC and 782815-120-R-J1-PDC lines were cultured in 6C/Colon 1B media, which includes advanced DMEM/F-12 (Thermo Fisher Scientific, cat. 12634028), 10 mM HEPES (Thermo Fisher Scientific, cat. 15630080), 1X GlutaMAX supplement (Thermo Fisher Scientific, cat. 35050061), 0.1 mg/mL primocin (InvivoGen, San Diego, CA, cat. ant-pm-2), 10% defined fetal bovine serum, heat inactivated (HyClone Laboratories Inc., Logan, UT, cat. SH30070.03HI), 50% L-WRN conditioned media (ATCC, cat. CRL-3276), 1.25 mM N-Acetyl-L-cysteine (Sigma-Aldrich, cat. A9165), 10 mM nicotinamide (Sigma-Aldrich, cat. N0636), 1X B-27 supplement (Thermo Fisher Scientific, cat. 17504044), 1X N-2 supplement (Thermo Fisher Scientific, cat. 17502048), 50 ng/mL human EGF (Thermo Fisher Scientific, cat. PHG0311), and 10 microM Y-27632 dihydrochloride (Tocris Bioscience, cat. 1254). The K12877-001-R-J1-PDC line was cultured in 6I media, which includes all 6C/Colon 1B media plus 10 ng/mL human FGF-10 (PeproTech, cat. 100-26), 1 ng/mL human FGF-2 (PeproTech, cat. 100-18B), 1 µM prostaglandin E2 (Tocris Bioscience, cat. 2296), […] hydrocortisone (Sigma-Aldrich, cat. H4001), and […] bovine insulin (Sigma-Aldrich, cat. I6634). The K86415-001-R-J1-PDC line was cultured in 6D media, which includes all 6C/Colon 1B media components minus the L-WRN conditioned media. The 485176-168-R4-J1-PDC was cultured in PANC media, which includes all 6C/Colon 1B media plus 100 ng/mL human FGF-10 (PeproTech, cat. 100-26), 500 nM SB-431542 (Selleckchem, cat. S1067), and 10 nM gastrin (Tocris Bioscience, cat. 3006). […]

Where [1] appears, read: compound alone, run of 09/09/2024.

Where “and” joins values, the source holds several entries; their conditions need not be identical. Equal entries are not always repeated. Where only a bound is given, the exact number is not on record here.
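Note: spheroids exposed to compounds for seven days before readout.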

As for `C#Cc1c(F)ccc2cc(O)cc(-c3ncc4c(N5CC6CCC(C5)N6)nc(OCC56CCCN5CC(F)C6)nc4c3F)c12` (configuration not stated), the viability, T/C is 25.6% [middle of 8 runs] (compound 0.0316 µM); 11.4% [middle of 8 runs] (compound 0.1 µM); 4.64% [middle of 8 runs] (compound 0.316 µM); 3.15% [middle of 8 runs] (compound 1 µM); 2.31% [middle of 8 runs] (compound 3.16 µM); 1.33% [middle of 8 runs] (compound 10 µM). For the same compound, under setting [1], the IC50 was less than 31.6 nM.
With `C=CC(=O)N1CCN(c2nc(OCC3CCCN3C)nc3c(F)c(-c4nc(N)cc(C)c4C(F)(F)F)c(Cl)cc23)C(C)C1` (configuration not stated), the viability, T/C is 96.1% [middle of 12 runs] (compound 0.00316 µM), 95.5% [middle of 12 runs] (compound 0.0316 µM) and 96.5% [middle of 12 runs] (compound 1 µM). For the same compound, the IC50 by setting is: under setting [1], greater than 1000 nM; (curve of compound) greater than 1000 nM.
In the case of `C=CC(=O)Nc1cc(Nc2nccc(-c3cn(C)c4ccccc34)n2)c(OC)cc1N(C)CCN(C)C`, the viability, T/C was 95.6% [middle of 4 runs] (compound 0.00316 µM); 97.8% [middle of 4 runs] (compound 0.01 µM); 92.6% [middle of 4 runs] (compound 0.0316 µM); 87.7% [middle of 4 runs] (compound 0.1 µM); 64.9% [middle of 4 runs] (compound 0.316 µM); 40.4% [middle of 4 runs] (compound 1 µM). Moreover, the half-maximal inhibitory concentration (IC50) (curve of compound) was 639 nM [middle of 4 runs].
In the case of `CC(C)n1nc(-c2ccc3oc(N)nc3c2)c2c(N)ncnc21`, the viability, T/C by setting is: (compound 0.001 µM) 80.6% [middle of 4 runs]; (compound 0.00316 µM) 69% [middle of 4 runs]; (compound 0.01 µM) 61.9% [middle of 4 runs]; (compound 0.0316 µM) 34.8% [middle of 4 runs].
In the case of `CC(Nc1ccc2c(c1)OCCn1cc(N3C(=O)OCC3C(F)F)nc1-2)C(N)=O` (configuration not stated), the viability, T/C is 76% [middle of 4 runs] (compound 0.0316 µM); 63.8% [middle of 4 runs] (compound 0.1 µM); 55.8% [middle of 4 runs] (compound 0.316 µM); 47.9% and 40.3% (2×) and 48.2% (compound 1 µM); 33.7% [middle of 4 runs] (compound 3.16 µM); 30.7% [middle of 4 runs] (compound 10 µM). Also, the IC50 (curve of compound) is 476 nM [middle of 4 runs].
As to `CC1(C)CCC(Nc2ncc(C(F)(F)F)c(-c3c[nH]c4c(P(C)(C)=O)c(C#N)ccc34)n2)CN1` (configuration not stated), the viability, T/C is, setting by setting: (compound 0.000949 µM) 84% [middle of 4 runs]; (compound 0.003 µM) 59.5% [middle of 4 runs]; (compound 0.00949 µM) 30% [middle of 4 runs]; (compound 0.03 µM) 21.3% [middle of 4 runs]; (compound 0.0949 µM) 16.6% [middle of 4 runs]; (compound 0.3 µM) 16.1% [middle of 4 runs]. In addition, under “curve of compound”, the concentration for half-maximal inhibition (IC50) was 4.35 nM [middle of 4 runs].
For the compound `CC1(O)CCCC1n1c(=O)c(C(F)F)cc2cnc(NC3CCN(S(C)(=O)=O)CC3)nc21` (configuration not stated), the viability, T/C was 77.2% [middle of 4 runs] (compound 0.0316 µM); 50% [middle of 4 runs] (compound 0.1 µM); 21.1% [middle of 4 runs] (compound 0.316 µM); 25.5% [middle of 4 runs] (compound 1 µM); 34.8% [middle of 4 runs] (compound 3.16 µM); 6.6% [middle of 4 runs] (compound 10 µM). Also, the concentration for half-maximal inhibition (IC50) (curve of compound) was 100 nM [middle of 4 runs].
With `CCN1CCN(Cc2ccc(Nc3ncc(F)c(-c4cc(F)c5nc(C)n(C(C)C)c5c4)n3)nc2)CC1`, the viability, T/C is 98.7% [middle of 4 runs] (compound 0.00316 µM); 79.1% [middle of 4 runs] (compound 0.01 µM); 70.3% [middle of 4 runs] (compound 0.0316 µM); 60% [middle of 4 runs] (compound 0.1 µM); 44.2% [middle of 4 runs] (compound 0.316 µM); 38% [middle of 4 runs] (compound 1 µM). Also, the concentration for half-maximal inhibition (IC50) (curve of compound) was 194 nM [middle of 4 runs].
For `CCc1c2c(nc3ccc(O)cc13)-c1cc3c(c(=O)n1C2)COC(=O)[C@]3(O)CC`, the viability, T/C runs as follows: (compound 0.000949 µM) 69.8% [middle of 4 runs]; (compound 0.003 µM) 35% [middle of 4 runs]; (compound 0.00949 µM) 16.7% [middle of 4 runs]; (compound 0.03 µM) 7.4% [middle of 4 runs]; (compound 0.0949 µM) 2.65% [middle of 4 runs]; (compound 0.3 µM) 2.02% [middle of 4 runs]. In addition, for the setting “curve of compound”, the IC50 was 1.8 nM [middle of 4 runs].
Take `CCn1c(-c2cc(N3CCN(C)CC3)cnc2C(C)OC)c2c3cc(ccc31)-c1csc(n1)CC(NC(=O)C1CC1C)C(=O)N1CCCC(N1)C(=O)OCC(C)(C)C2` (configuration not stated): the viability, T/C is, setting by setting: (compound 0.000949 µM) 51.8% [middle of 8 runs]; (compound 0.003 µM) 21.4% [middle of 8 runs]; (compound 0.00949 µM) 5.65% [middle of 8 runs]; (compound 0.03 µM) 2.68% [middle of 8 runs]; (compound 0.0949 µM) 2.25% [middle of 8 runs]; (compound 0.3 µM) 1.95% [middle of 7 runs].
For the compound `CCn1c(-c2cccnc2C(C)OC)c2c3cc(ccc31)N1CCOC(CC(NC(=O)C(C(C)C)N(C)C(=O)C3(F)CCN(C(=O)C#CC(C)(C)N(C)C)CC3)C(=O)N3CCCC(N3)C(=O)OCC(C)(C)C2)C1` (configuration not stated), the viability, T/C is 105% [middle of 8 runs] (compound 0.000949 µM); 109% [middle of 8 runs] (compound 0.003 µM); 99.3% [middle of 8 runs] (compound 0.03 µM); 99.5% [middle of 8 runs] (compound 0.0949 µM); 88% [middle of 8 runs] (compound 0.3 µM). The IC50 (compound alone, run of 08/20/2024) is greater than 300 nM.
On to `C[C@@H](NC(=O)c1ncnc(N)c1Cl)c1ncc(C(=O)Nc2cc(C(F)(F)F)c(Cl)cn2)s1`, for which the viability, T/C by setting is: (compound 0.0316 µM) 95.1% [middle of 4 runs]; (compound 0.1 µM) 99.2% [middle of 4 runs]; (compound 1 µM) 117% (2×) and 109% and 132%. The IC50 (curve of compound) was greater than 10000 nM.
`Nc1ccn(C2OC(CO)C(O)C2(F)F)c(=O)n1` (configuration not stated): the viability, T/C (compound 0.01 µM) was 36.6% [middle of 4 runs]; the viability, T/C (compound 0.0316 µM) was 21.4% and 7.24% and 10.1% (2×); the viability, T/C (compound 0.1 µM) is 5.39% [middle of 4 runs]; the viability, T/C (compound 0.316 µM) was 4.06% [middle of 4 runs]; the viability, T/C (compound 1 µM) was 3.19% [middle of 4 runs]. Under “curve of compound”, the half-inhibitory concentration (IC50) was 6.44 nM [middle of 4 runs].
Regarding `O=C(c1ccc(F)c(F)c1Nc1ccc(I)cc1F)N1CC(O)([C@@H]2CCCCN2)C1`, the viability, T/C was 85.8% [middle of 4 runs] (compound 0.00316 µM); 79.5% [middle of 4 runs] (compound 0.01 µM); 56.3% [middle of 4 runs] (compound 0.0316 µM); 21.3% (2×) and 13.7% and 21.1% (compound 0.1 µM); 2.49% [middle of 4 runs] (compound 0.316 µM); 0.68% [middle of 4 runs] (compound 1 µM). Besides, the IC50 (curve of compound) is 39.2 nM [middle of 4 runs].

As usually defined, the viability, T/C is the ratio of treated to control. As usually defined, the IC50 is the concentration that gives 50% inhibition.
